In general, IC50 refers to the concentration that inhibits the measured activity by half. Higher therefore signals a need for much substance.

This passage reports IC50 results from US10208060B2, “Inhibitors of HIF prolyl hydroxylase” (Merck Sharp & Dohme Corp., priority 2014, dated 2019).

In this assay the target is human HIF-PHD2 (Homo sapiens (Human), UniProt Q9GZT9). The assay can be described thus: HIF-PHD2 inhibition assay (hydroxylation of HIF-1α peptide, time resolved fluorescence). It counts as biochemical. The settings on record: FLAG-tagged full length PHD2; 0.2 μM 2-oxoglutarate, 0.5 μM HIF-1α peptide; 45 minutes at room temperature. The procedure:
To each well of a 384-well plate, 1 μL of test compounds in DMSO (final concentration ranging from 0.3 nM to 10 uM) were added into 20 μl of assay buffer (50 mM Tris pH 7.4/0.01% Tween-20/0.1 mg/ml bovine serum albumin/10 μM ferrous sulfate/1 mM sodium ascorbate/20 μg/ml catalase) containing 0.15 μg/ml FLAG-tagged full length PHD2 expressed in and purified from baculovirus-infected Sf9 cells. […] Purif.

Sequence of human HIF-PHD2 (Q9GZT9 whole entry): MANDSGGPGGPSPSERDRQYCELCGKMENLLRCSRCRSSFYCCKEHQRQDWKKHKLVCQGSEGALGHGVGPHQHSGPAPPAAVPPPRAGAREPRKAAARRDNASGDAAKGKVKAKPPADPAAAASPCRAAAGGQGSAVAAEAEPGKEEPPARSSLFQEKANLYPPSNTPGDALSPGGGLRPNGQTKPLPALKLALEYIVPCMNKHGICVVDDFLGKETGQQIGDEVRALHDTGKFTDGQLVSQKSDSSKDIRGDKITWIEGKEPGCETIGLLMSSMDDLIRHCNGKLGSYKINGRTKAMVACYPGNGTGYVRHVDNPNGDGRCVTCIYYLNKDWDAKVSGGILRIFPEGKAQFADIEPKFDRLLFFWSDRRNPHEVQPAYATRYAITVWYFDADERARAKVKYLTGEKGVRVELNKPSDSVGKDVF

On to `O=C(O)CNC(=O)c1c(O)c2c(n(-c3ccc(Br)cc3)c1=O)CSC2` [Example 11, 2-(1-(4-Bromophenyl)-4-hydroxy-2-oxo-1,2,5,7-tetrahydrothieno[3,4-b]pyridine-3-carboxamido)acetic acid], for which inhibition was half-maximal at 8.8 nM (IC50). The value for `O=C(O)CNC(=O)c1c(O)c2c(n(-c3ccc(-c4ccc(OC(F)(F)F)cc4)cc3)c1=O)CSC2` [Example 12] was 10 nM.
